From US4749710A, “Immunosuppressive agents” (priority 1985, dated 1988)
Read-outs that look alike come from different tables or passages of the source.

How the values were obtained:
Format in all cases: cell-based
[1] = system: IgM production by human lymphocytes; test: Inhibition of IgM production by human lymphocytes in vitro (SAC activation, ELISA); details: 8 days, vehicle control 2.49 ± 0.17
Source text: (§1) General Test Description Humoral immunity comprises one of the two major arms of the immune system and generally is beneficial. However, a number of disease states are characterized by a hyperactive immune system responding to self tissue antigens. […] In these diseases it would be important to suppress the humoral immune system.
(§2) In the following studies we used established methods to examine the effect of Vitamin D derivatives on the in vitro production of immunoglobulin (Ig) by human peripheral blood leukocytes (PBL) following polyclonal activation. Immunoglobulin was induced from PBL by co-culturing the PBL with the polyclonal B cell activator Staphylococcus aureus strain Cowan I (SAC) for a period of 8 days. The quantity of Ig produced in the culture supernatants was determined by using an enzyme linked immunosorbent assay (ELISA). The effect of Vitamin D derivatives was determined by comparing the amount of antibody produced in cultures containing Vitamin D derivatives to those cultures containing an appropriate concentration of vehicle (ethanol).
(§3) Solutions of vitamin D derivatives. Stock solutions of vitamin D derivatives were prepared as described previously for the murine CTL experiments.
(§4) INDUCTION OF HUMAN IG SECRETION Human peripheral blood mononuclear leukocytes were prepared from one day old buffy coat preparations obtained from the American Red Cross (Lansing, MI). […] Twenty five ml of this preparation were overlayed onto 25 ml of Ficoll-Paque contained in a 50 ml polypropylene centrifuge tube. After centrifugation at 400×g at 15° C. for 40 min, the cells at the interface of the medium and Ficoll were removed and washed 3 times in 50 ml RPMI medium and centrifuged at 300×g for 10 minutes. After the final centrifugation,the cell pellet was suspended in RPMI medium containing 20% fetal bovine serum (FBS) and 80 μg/ml gentamicin. The number of viable cells was determined by trypan blue exclusion and were then suspended to 2.5×10^6 viable cells per ml in RPMI containing 20% FBS and gentamicin. Human PBL were induced to secrete Ig as follows. One hundred microliters of the PBL suspension and an additional 100 μl of a 1:20,000 (v/v) preparation of SAC suspended in RPMI containing 1% FBS were added to each well of a 96-well microtiter plate. Selected wells were also set up without the addition of SAC to serve as negative controls (spontaneous Ig secretion). Each well then received 20 μl of either the appropriate dilution of Vitamin D derivative in RPMI with 1% ethanol or RPMI with 1% ethanol (vehicle control). The vitamin D derivatives were tested at final concentrations of 10^-5, 10^-6, 10^-7, 10^-8, 10^-9, and 10^-10 M and in all cases the vehicle (ethanol) concentration was 0.1%. All treatments were performed in triplicate. […] The samples were then either assayed immediately or stored at -20° C. until assayed by the ELISA technique described below.
(§5) QUANTITATION OF SECRETED IG (ELISA ASSAY) ELISA plates were prepared for quantitating human IgG and IgM levels in culture supernatants as follows. Affinity purified sheep anti-human IgG and goat anti-human IgM (Cappel, Cochranville, PA) were diluted 1:250 and 1:400 respectively, in carbonate coating buffer (0.05M sodium bicarbonate, 0.05M sodium carbonate, 0.15M sodium chloride). One hundred and fifty microliters of the antibody preparation were added to each well of a 96 well ELISA plate (EIA, Costar). The plates were sealed and incubated overnight at 4° C. and on the following day were washed 3 times with distilled water. Each well then received 350 μl of Dulbecco's PBS containing 1 mg/ml bovine serum albumin (BSA) and 0.5 mg/ml sodium azide. The plates were allowed to incubate for 1 hour at 37° C. and then washed 3 times with Dulbecco's PBS containing 0.5% stock Tween 20 (PBS-Tween) followed by 2 washes with distilled water. The plates were air dried and stored desiccated under a vacuum at 4° C. until use.

[2] = system: IgG production by human lymphocytes; test: Inhibition of IgG production by human lymphocytes in vitro (SAC activation, ELISA); details: 8 days, vehicle control 0.78 ± 0.09
Source text: as §1, §2, §3, §4, §5

[3] = system: human cytotoxic T-lymphocyte responses; test: Inhibition of human CTL responses (mixed leukocyte-tumor cultures, HT-144 melanoma, ^51 Cr release); details: donor I, 0.01% ethanol, effector to target 6:1; for inhibition at 1 µM / inhibition at 0.1 µM / inhibition at 10 µM: Homo sapiens, T-lymphocyte
Experimental: Human cells for the tests described below were taken from four donors designated I, II, III, and IV in the tables below.
Stock solutions of Vitamin D derivatives were prepared as they were prepared above in the murine tests.
Human cytotoxic T-lymphocytes were generated in mixed leukocyte-tumor cultures by known methods. Specifically, blood from normal volunteer donors was drawn into heparinized syringes, diluted 1:1 with calcium-magnesium free Hanks' balanced salt solution (Ca-Mg free HBSS), and layered over lymphocyte separation medium (Litton Bionetics, Kensington, MD). After centrifugation at 500xg for 20-30 min at room temperature, peripheral blood mononuclear cells were harvested from the interface. The peripheral blood mononuclear leukocytes were centrifuged and resuspended in Ca-Mg free HBSS and were subsequently separated from platelets by centrifugation at 500xg through a solution of 20% sucrose and 1% human AB serum in Ca-Mg free HBSS. The cells were washed once and finally resuspended in tissue culture medium. […] Cells to be used as stimulator cells in mixed leukocyte-tumor cultures were irradiated with 10,000 rads of gamma irradiation to preclude proliferation in culture. Mixed leukocyte-tumor cell cultures were established in 16 mm tissue culture wells at a final volume of 1.5 ml per well containing 2×10^6 peripheral blood mononuclear leukocytes and 5×10^4 irradiation-inactivated stimulator cells. In order to prevent the generation of nonspecific cytotoxic cells in these cultures, hydrocortisone sodium succinate was added to each culture at a final concentration of 1×10^-5 M. Mixed leukocyte-tumor cultures were incubated for 6 days in a humidified atmosphere of 5% CO2 in air.
Labelled target cells were washed free of unbound isotope by 3 serial washes in tissue culture medium and were finally resuspended at a concentration of 5×10^4 cells per ml.
Assays of human cytotoxic T-lymphocytes were done by known methods. Specifically, one-tenth ml aliquots of ^51 Cr-labelled target cell suspension were added to "half area" microtest plates and were incubated at 37° C. for 18 hours in a humidified atmosphere of 5% CO2 in air to permit the cells to adhere and spread on the floor of each well. Culture medium was then aspirated from each well and was replaced with 0.1 ml of tissue culture medium containing cells harvested from mixed leukocyte-tumor cultures which had been processed as described for murine mixed leukocute cultures, above. Control wells for measurement of spontaneous ^51 Cr release received medium without effector cells and wells for measurement of maximal releasable ^51 Cr received 0.1 ml of 2% sodium dodecyl sulfate in distilled water. After overnight incubation at 37° in a humidified atmosphere of 5% CO2 in air, 0.05 ml of cell-free supernatant was withdrawn from each well and the amount of released ^51 Cr was quantitated using a gamma spectrometer. The percentage of specific ^51 Cr release (CTL activity) and the percent inhibition of CTL activity were calculated with the same formulas used above for the murine CTL assay.
Tests conducted on human cytotoxic T-lymphocyte responses are reported as the mean±standard error of the mean from triplicate ^51 Cr release determinations on pooled cells from duplicate control or test cultures.

Structure (SMILES)	IgM μg per culture (x ± S.E.M.) ([1]; 1 × 10^-6 molar)	IgM μg per culture (x ± S.E.M.) ([1]; 1 × 10^-7 molar)	IgM μg per culture (x ± S.E.M.) ([1]; 1 × 10^-8 molar)	IgM μg per culture (x ± S.E.M.) ([1]; 1 × 10^-9 molar)	IgM μg per culture (x ± S.E.M.) ([1]; 1 × 10^-10 molar)	IgG μg per culture (x ± S.E.M.) ([2]; 1 × 10^-6 molar)	IgG μg per culture (x ± S.E.M.) ([2]; 1 × 10^-7 molar)	IgG μg per culture (x ± S.E.M.) ([2]; 1 × 10^-8 molar)	IgG μg per culture (x ± S.E.M.) ([2]; 1 × 10^-9 molar)	IgG μg per culture (x ± S.E.M.) ([2]; 1 × 10^-10 molar)	CTL activity (% specific ^51 Cr release) ([3]; Test 1, 1 × 10^-6 molar)	CTL activity (% specific ^51 Cr release) ([3]; Test 1, 1 × 10^-7 molar)	CTL activity (% specific ^51 Cr release) ([3]; Test 2, 1 × 10^-5 molar)	CTL activity (% specific ^51 Cr release) ([3]; Test 2, 1 × 10^-6 molar)	also measured
C=C1/C(=C\C=C2/CCC[C@]3(C)[C@@H]([C@H](C)CCCC(C)(C)O)CC[C@@H]23)C[C@@H](O)C[C@@H]1F [1α-F--25-OH--D3, 1α-Fluoro-25-hydroxycholecalciferol]	undetectable	0.38 ± 0.30 μg per culture	1.83 ± 0.29 μg per culture	3.10 ± 0.10 μg per culture	4.48 ± 0.75 μg per culture	undetectable	0.08 ± 0.05 μg per culture	0.14 ± 0.05 μg per culture	0.18 ± 0.001 μg per culture	0.45 ± 0.11 μg per culture					
C=C1/C(=C/C=C2\CCC[C@]3(C)[C@@H]([C@H](C)CCCC(C)(C)O)CC[C@@H]23)C[C@@H](O)C[C@@H]1O [5,6-trans-1α,25-(OH)2 --D3, 1α,25-Dihydroxy-5,6-trans-cholecalciferol]	undetectable	0.04 ± 0.01 μg per culture	0.50 ± 0.21 μg per culture	2.36 ± 0.27 μg per culture	2.79 ± 0.18 μg per culture	undetectable	0.01 ± 0.001 μg per culture	0.21 ± 0.12 μg per culture	0.29 ± 0.05 μg per culture	0.55 ± 0.16 μg per culture	20 ± 2 % specific ^51 Cr release	20 ± 2 % specific ^51 Cr release	17 ± 3 % specific ^51 Cr release	11 ± 2 % specific ^51 Cr release	inhibition at 1 µM ([3]; read-out: Inhibition of CTL activity (%), Test 1, 1 × 10^-6 molar): 62%; inhibition at 0.1 µM ([3]; read-out: Inhibition of CTL activity (%), Test 1, 1 × 10^-7 molar): 62%; inhibition at 10 µM ([3]; read-out: Inhibition of CTL activity (%), Test 2, 1 × 10^-5 molar): 60%; inhibition at 1 µM ([3]; read-out: Inhibition of CTL activity (%), Test 2, 1 × 10^-6 molar): 74%
C=C1/C(=C\C=C2/CCC[C@]3(C)[C@@H]([C@H](C)CCC(F)(F)C(C)(C)O)CC[C@@H]23)C[C@@H](O)C[C@@H]1O [24,24-(F)2 --1α,25-(OH)2 --D3, 1α,25-Dihydroxy-24,24-difluorocholecalciferol]	undetectable	undetectable	undetectable	undetectable	0.50 ± 0.12 μg per culture	undetectable	undetectable	0.01 ± 0.003 μg per culture	0.02 ± 0.02 μg per culture	0.11 ± 0.03 μg per culture	15 ± 1 % specific ^51 Cr release	10 ± 1 % specific ^51 Cr release	9 ± 2 % specific ^51 Cr release	5 ± 2 % specific ^51 Cr release	inhibition at 1 µM ([3]; Test 1, 1 × 10^-6 molar, read-out: Inhibition of CTL activity (%)): 71%; inhibition at 0.1 µM ([3]; Test 1, 1 × 10^-7 molar, read-out: Inhibition of CTL activity (%)): 81%; inhibition at 10 µM ([3]; Test 2, 1 × 10^-5 molar, read-out: Inhibition of CTL activity (%)): 83%; inhibition at 1 µM ([3]; Test 2, 1 × 10^-6 molar, read-out: Inhibition of CTL activity (%)): 91%
